Test results reported in ChEMBL document CHEMBL3507680, “University of Dundee, Gates Library screen for HepG2 cell viability”.

Test: Human HepG2 cell viability assay in 384 well format
Type: toxicity, cell-based
Design: dose 125 nL, time 70.5 hour; concentration not given beside the values
Conditions: HepG2 cells, read-out: Inhibition

| SMILES | cytotoxicity at 70.5 h [%] |
| --- | --- |
| Cc1nc(CN2CCCc3cc(OC(F)(F)F)ccc32)oc1C | 4.79 |
| CC(NC(=O)CCn1c(=O)oc2ccccc21)c1ccccn1 (configuration not stated) | -2.59 |
| CC(=O)Nc1ccc(CCC2(NC(=O)C3CCCO3)CCCCC2)cn1 (configuration not stated) | -0.834 |
| CN(Cc1ccc(-n2cccn2)cc1)C[C@@H]1CCCN2CCCC[C@H]12 | 24.9 |
| CCOCC1CN(c2ncc(F)cn2)Cc2cn(CC)nc21 (configuration not stated) | -11.1 |
| Cc1oncc1C(=O)N1CC[C@H]2[C@H]1CCN2S(C)(=O)=O | -1.36 |
| CC(C)c1noc(CCCC(=O)N2CCC(Cc3cccnc3)CC2)n1 | -20.7 |
| Cc1cnccc1N1CCCN(C(=O)CCCn2ccnc2C)CC1 | -6.13 |
| CCSc1ncc(CN(Cc2cnn(C)c2)CC(C)C)cn1 | -4.66 |
| COc1ccc(C)cc1C(C)NC(=O)CCn1cncn1 (configuration not stated) | -5.61 |
| CC(=O)c1cc(CC(=O)NCc2ccc(CN(C)C)cc2)cs1 | -7.31 |
| O=C(CCc1cc2n(n1)CCCNC2)N1CCSCC1 | -9.8 |
| Cc1nccc(C2CN(Cc3ccc(-c4ccccc4C(=O)O)o3)C2)n1 | -2.56 |
| Cc1c(COC(C)C)cccc1NC(=O)N1CCC(N2CCCC2)C1 (configuration not stated) | 9 |
| Cc1nnc(C(C)Nc2ccc(OCCc3ccccc3)nc2)o1 (configuration not stated) | 0.291 |
| Cc1c(C(=O)N2CCC3(CCC(=O)N(CCN(C)C)C3)CC2)ccn1C | 0.579 |
| CN1CCOC(C)(C(=O)N2CCN(C3CCCC3)CC2)C1 (configuration not stated) | -11.9 |
| O=C(CSCC1CC1)N1CCc2[nH]nc(COc3ccccc3)c2C1 | -6.96 |
| O=C(C1CN(Cc2ccoc2)CC12CCOCC2)N1CCCC1 (configuration not stated) | 7.01 |
| CC(CNS(C)(=O)=O)Oc1cccc(Cl)c1 (configuration not stated) | 3.7 |
| Cc1cc2ccccc2n1CCC(=O)N1CCCC1Cn1cccn1 (configuration not stated) | -9.07 |

| SMILES | cytotoxicity at 70.5 h [%] |
| --- | --- |
| CC(NC(=O)c1cc2n(n1)CCCN(C(C)C)C2)c1cn2ccsc2n1 (configuration not stated) | -16.5 |
| O=C(NCCO)Nc1c(F)cccc1Oc1ccccc1 | -7.66 |
| CC(C)(CNc1ccc(C#N)c(C(F)(F)F)c1)C(N)=O | 2.06 |
| CCOC1CC2(CCN(Cc3cnn(C)c3)CC2)c2ccc(C)cc21 (configuration not stated) | 1.09 |
| COC(=O)[C@@H](NC(=O)c1snnc1-c1ccc(OC)cc1)C(C)C | 11.1 |
| CN(C)CC(=O)N1Cc2ncn(C)c2C(COCC2CCOCC2)C1 (configuration not stated) | -6.48 |
| COCCN1C[C@@H](C)[C@@]2(COCCN(C(=O)c3ccno3)C2)C1 | -1.41 |
| CC[C@@]1(O)CCN(Cc2cc(C3CCCCC3)no2)C[C@H]1O | -2.92 |
| Cn1ccc(C(=O)N2CCCC(Cc3cccc4cccnc34)C2)n1 (configuration not stated) | 11.6 |
| CN(CCn1cccn1)S(=O)(=O)N1CCCC1c1ccco1 (configuration not stated) | -17 |
| CCOCCC(=O)N(CCC#N)c1ccc(C)c(C)c1 | -1.94 |
| Cc1cc(NC(=O)C(C)Cn2cc(Br)cn2)no1 (configuration not stated) | 1.29 |
| CCCc1cc(=O)[nH]c(-c2cccc(CN3CCN4CCCC4C3)c2)n1 (configuration not stated) | -6.97 |
| CC(=O)N1CCN(C(=O)CCNc2snc(Cl)c2C#N)CC1 | -10.6 |
| O=C(O)C1(Cc2ccccc2Cl)CCN(c2ncnc3[nH]ccc23)CC1 | 10.8 |
| Cn1nnc(NCc2ccc(-c3ccc(Br)cc3)o2)n1 | -9.29 |
| CCOc1cccc(NC(=O)c2cnc(C)cn2)n1 | -3.9 |
| Cc1ccc([C@]2(O)CC[C@H]3CN(Cc4cccc(Cl)c4Cl)C[C@H]32)nc1 | 22.9 |
| OC1CCN(c2ccc(CNc3nc4ccccc4s3)cc2F)CC1 | -9.14 |
| Cc1nnsc1C(=O)NCc1cccnc1N1CCCC(O)C1 (configuration not stated) | -15.1 |
| Cc1cnc(C(NC(=O)NCC2(CO)CC2)C2CC2)s1 (configuration not stated) | 2.13 |

| SMILES | cytotoxicity at 70.5 h [%] |
| --- | --- |
| NC(=O)NCC1CCCCN1C(=O)c1ccc(Br)s1 (configuration not stated) | -8.99 |
| Cn1c(-c2ccccc2)nn(CCNS(=O)(=O)c2ccccc2Cl)c1=O | 0.396 |
| O=C1OCCN1Cc1cc(C(F)(F)F)ccc1F | -7.38 |
| Cc1ccc(-n2nnnc2SCN2CCCCC2=O)cc1C | -3.89 |
| CCc1cnc(N2CC[C@H]3[C@@H]2CCC(=O)N3CC2CCOCC2)nc1 | 20.9 |
| COc1ccc(OCc2cc(C(=O)N3CCOCC3)n[nH]2)c(Cl)c1 | -2.87 |
| C=C(C)CN1CCCC(NS(C)(=O)=O)C1 (configuration not stated) | -5.08 |
| CCCn1nccc1-c1nccnc1CC1CCN(C(C)=O)C1 (configuration not stated) | -2.05 |
| Cn1c(=O)oc2cc(Nc3nccnc3C#N)ccc21 | -2.2 |
| CCCn1c(N2CCCC2)nc2c(C)nn(C)c2c1=O | -6.89 |
| Cc1ccc(Oc2ncccc2CNC2Cc3ccccc3C2)cn1 | -8.21 |
| Cc1cc(NC(=O)N(CCC#N)CCCN(C)C)ccc1F | -2.44 |
| Clc1ccccc1-c1nnc(CNCCn2cccn2)o1 | -8.51 |
| CCN(C)C(=O)c1ncn2c(C3CCN(S(C)(=O)=O)CC3)ccnc12 | -5.47 |
| CC(C)C(C)NC(=O)CNc1cc2c(cc1Cl)NC(=O)CO2 (configuration not stated) | 6.71 |
| Cc1ccc(-c2nc(CSCCC(=O)NC(N)=O)co2)c(C)c1 | 22 |
| CC(C)CC(O)C1CCN(Cc2cnc(-c3cccs3)nc2)CC1 (configuration not stated) | 37.1 |
| CN(Cc1ccc(Br)o1)C(=O)Nc1cccnc1 | -5.06 |
| Cc1cc(C)n(C2CCCN(C(=O)CCCc3ccccn3)C2)n1 (configuration not stated) | -0.29 |
| Cn1cnc2c1CCN(Cc1csc(-c3ccsc3)n1)C2 | 20.4 |
| CN(C)S(=O)(=O)N1C[C@@H]2COC[C@]2(COc2ccccn2)C1 | -17.2 |

| SMILES | cytotoxicity at 70.5 h [%] |
| --- | --- |
| Cc1ccc(Oc2ncccc2C(=O)N(C)CC2OCCO2)c(C)c1 | -4.31 |
| CN(C)C(=O)c1cccc(CN2CCOC(Cn3cccn3)C2)c1 (configuration not stated) | -12.9 |
| CN(Cc1ccco1)C[C@@H]1OC[C@H]2CN(Cc3nccs3)CC[C@H]21 | 4.46 |
| Cc1nn(C)c(Cl)c1C1CCCN1C(=O)CCNc1ncccn1 (configuration not stated) | -2.34 |
| Cn1cc(Br)cc(NC(=O)Cc2cccs2)c1=O | 17.9 |
| CS(=O)(=O)NCC(=O)N[C@H]1CN(CC2CC2)C[C@@H]1c1ccccc1 | -9.72 |
| CN(Cc1ccsc1)Cc1nc(-c2cnccn2)no1 | -6.12 |
| CCCC(=O)NC1CCCN(c2nc3ccccc3cc2CO)C1 (configuration not stated) | 13.7 |
| COc1cc2nc3n(c(=O)c2cc1OC)CCN(C(=O)C1CC1)CC3 | 20 |
| Cc1ccsc1C(=O)NC1CCN(c2cnn(C)c2)C1=O (configuration not stated) | 17.9 |
| COc1cc(C(=O)N(C)Cc2cc(C(=O)O)c(C)o2)cc(OC)c1OC | -7.77 |
| CCOc1cc(C)nc(N2CCN(Cc3nccn3CC)CC2)n1 | 7.28 |
| COCC(C)Nc1ccc(-c2nc(Cc3ccc(F)cc3)no2)cn1 (configuration not stated) | 27.4 |
| Cn1ccc(C(=O)N2CCOC3(COCCN(CC4CC4)C3)C2)n1 (configuration not stated) | -3.98 |
| CCc1nccn1CC(=O)Nc1cccc(N2CCCC2)c1 | 9.22 |
| OCCC1CN(c2nc(-c3cccnc3)nc3c2CCNCC3)CCO1 (configuration not stated) | -1.49 |
| Cc1nc(C2(O)CCCNCC2)sc1CCOc1ccccc1 (configuration not stated) | -9.24 |
| CCC(C)(C)C(=O)N1C[C@@H]2C[C@@H](c3nnc(C)[nH]3)O[C@@H]2C1 | -8.87 |
| CCn1cc(CN2CCCN(C(=O)CCc3ccncc3)CC2)cn1 | 25.1 |
